Results taken from patent US11028058B2, “Heterocyclic compounds as adenosine antagonists” (NUVATION BIO INC., priority 2017, dated 2021).
Like-named read-outs stand apart in the source and are kept apart here.

What was measured:
[1] = biological target: human adenosine A2A membrane preparation (Homo sapiens (Human), UniProt P29274); test: Adenosine A2A receptor radioligand binding assay (SPA beads, 3H-SCH 58261, 384 plate); settings: for inhibition at 3 µM: read-out: A2a binding % inh @ 3000 nM; for IC50: Table B1-2; for inhibition at 0.01 µM: read-out: A2a binding % inh @ 10 nM; for inhibition at 0.1 µM: read-out: A2a binding % inh @ 100 nM; for inhibition at 1 µM: read-out: A2a binding % inh @ 1000 nM
Experimental: For the A2A adenosine receptor radioligand binding assay, the following modifications were made to the general protocol. GF/C filters (Perkin Elmer, 6005174), presoaked in 0.01% Brij for 2 h at room temperature were used. Filters were washed six times with 0.5 mL of ice-cold washing buffer (50 mM Tris pH 7.4) and 50 μL of Microscint 20 (Packard) was added in each well. The plates were then incubated for 15 min on an orbital shaker and then counted with a TopCount™ for 1 min/well. Another radioligand binding assay was used to evaluate the binding affinity for the adenosine A2A receptor assay was performed in duplicate in the wells of a 384 plate. Assay buffer contained DPBS 500 mM, MgCl2 0.1 mM, and 1% DMSO. Membrane-bead suspension was prepared by mixing 25.98 μL of human adenosine A2A membrane preparation (Perkin Elmer, RBHA2AM400UA) at 33.4 μg/mL, 28 μL of ADA at 20 μg/mL, and 932 μL of SPA beads at 3.33 mg/mL) and incubated the mixture for 20 min at room temperature. Mixed 20 μL of radiotracer (^3H-SCH 58261) at 15 nM to each well containing test articles at various concentrations and centrifuge the plate at 1000 rpm for 1 minute. Added 30 μL of the membraine-bead suspension to each well. Sealed the plates and incubated for 1 hr at room temperature with vigorous mixing on a plate mixer. Plates were read on Microbeta^2 (Perkin Elmer, 2450-0010).

[2] = biological target: HEK-293 cells expressing human recombinant adenosine A2A receptor (Homo sapiens (Human), UniProt P29274); test: cAMP assay, Assay 2 (Eu-cAMP tracer / ULight-anti-cAMP); assay type: cell-based
Experimental: The functional activity of compounds was tested using one of the two assays to detect the present of cAMP. Activation of G-protein coupled receptors (such as A2A) results in activation of adenylcyclase which converts ATP into cAMP which is used as a downstream signaling molecule. Therefore, molecules which act as GPCR (or specifically A2A receptor) antagonists cause a decrease in intracellular cAMP concentration.
Both assays used HEK-293 cells expressing human recombinant adenosine A2A receptor were grown prior to the test in media without antibiotic.
Assay 2 (Table B2-2): 100 nL of test articles at 100× of final concentration were transferred to assay plate by Echo. Cells were washed twice with 5 mL of PBS […]. After aspirating the PBS and adding 1.5 mL versine, cells were incubated at 37° C. for 2-5 min. After centrifugation, 4 mL of medium was added and adjusted cell density to 5,000 cells/well with Stimulation Buffer. 10 μL of cells were aliquoted to the assay plate, centrifuged at 1000 rpm for 1 minute, and incubated for 60 minutes at room temperature. 5 μL 4×Eu-cAMP tracer solution and 5 μL 4×Ulight™-anti-cAMP solution were added to assay plate, followed by centrifugation and 60-minute incubation at room temperature. Plates were read on EnVision.

[3] = HEK293, 100 nM, Assay 2, read-out: A2a cAMP % inh @ 100 nM

Sequence of human adenosine A2A membrane preparation (P29274 whole entry): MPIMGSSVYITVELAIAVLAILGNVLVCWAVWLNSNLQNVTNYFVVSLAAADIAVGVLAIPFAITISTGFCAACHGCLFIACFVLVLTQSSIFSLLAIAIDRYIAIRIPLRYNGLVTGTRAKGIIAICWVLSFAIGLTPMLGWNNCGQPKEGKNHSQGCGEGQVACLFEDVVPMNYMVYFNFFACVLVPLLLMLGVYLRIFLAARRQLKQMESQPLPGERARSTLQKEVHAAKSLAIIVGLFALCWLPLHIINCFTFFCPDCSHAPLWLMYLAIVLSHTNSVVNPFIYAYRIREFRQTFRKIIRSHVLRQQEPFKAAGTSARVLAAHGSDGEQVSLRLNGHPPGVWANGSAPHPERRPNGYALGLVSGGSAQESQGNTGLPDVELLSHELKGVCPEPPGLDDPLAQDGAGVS
Sequence of HEK-293 cells expressing human recombinant adenosine A2A receptor (P29274 whole entry): as above

Structure (SMILES)	inhibition at 3 µM [1] [%]	IC50 ([2]; Assay 2) [µM]	inhibition at 0.1 µM [2, 3] [%]	also measured
Cc1ccc(-c2nc(N)cnc2-c2cc(Cl)c3[nH]cnc3c2)o1 [Compound No. 1.45, 5-(7-chloro-1H-benzimidazol-5-yl)-6-(5-methylfuran-2-yl)pyrazin-2-amine]	91			inhibition at 0.1 µM ([2]; HEK293, read-out: A2a cAMP % inh @ 100 nM): 100%
Nc1nc(-c2ccccc2)c(-c2ccc3ncccc3c2)nc1O [Compound No. 1.241, 3-amino-5-phenyl-6-(quinolin-6-yl)pyrazin-2-ol]	86		80	
Cc1cccc(CNC(=O)c2nc(-c3ccc4ncccc4c3)c(-c3ccccc3)nc2N)n1 [Compound No. 1.273, 3-amino-N-((6-methylpyridin-2-yl)methyl)-5-phenyl-6-(quinolin-6-yl)pyrazine-2-carboxamide]	100	0.012		
Cc1ncc(-c2nc(N)cnc2-c2ccc3ncccc3c2)s1 [Compound No. 1.288, 6-(2-methylthiazol-5-yl)-5-(quinolin-6-yl)pyrazin-2-amine]		1.05		IC50 [1]: 0.0555 µM; inhibition at 0.001 µM ([1]; read-out: A2a binding % inh @ 1 nM): 42%; inhibition at 0.01 µM [1]: 83%; inhibition at 0.1 µM [1]: 86%; inhibition at 1 µM [1]: 84%
Nc1cnc(-c2ccc3ncoc3c2)c(-c2ccccc2)n1 [Compound No. 1.35, 5-(benzo[d]oxazol-6-yl)-6-phenylpyrazin-2-amine]	64		22	
Cn1ccc(-c2nc(N)cnc2-c2cc(Cl)c3[nH]ncc3c2)n1 [Compound 1.304, 5-(7-chloro-1H-indazol-5-yl)-6-(1-methyl-1H-pyrazol-3-yl)pyrazin-2-amine]		0.04		IC50 [1]: 0.009 µM
Cc1ccc(-c2nc(N)cnc2-c2ccc3ncccc3c2)s1 [Compound No. 1.210, 6-(5-methylthiophen-2-yl)-5-(quinolin-6-yl)pyrazin-2-amine]	100		100	
CN1CCN(c2nc(-c3ccc4ncccc4c3)c(-c3ccccc3)nc2N)CC1 [Compound No. 1.276]	24		0	
Nc1cnc(-c2ccc3[nH]ncc3c2)c(-c2ccccc2)n1 [Compound No. 1.270, 5-(1H-indazol-5-yl)-6-phenylpyrazin-2-amine]	100		100	
N#Cc1nc(-c2ccc3ncoc3c2)c(-c2ccccc2)nc1N [Compound No. 1.193, 3-amino-6-(benzo[d]oxazol-6-yl)-5-phenylpyrazine-2-carbonitrile]	83		87	
Nc1cnc(-c2ccc3ncccc3c2)c(-c2nccs2)n1 [Compound No. 1.279, 5-(quinolin-6-yl)-6-(1,3-thiazol-2-yl)pyrazin-2-amine]	58		9	
Nc1nc(-c2ccccc2)c(-c2ccc3ncccc3c2)nc1C(=O)O [Compound No. 1.238, 3-amino-5-phenyl-6-(quinolin-6-yl) pyrazine-2-carboxylic acid]	11		7	
N#Cc1nc(-c2ccc3ncsc3c2)c(-c2ccccc2)nc1N [Compound No. 1.192, 3-amino-6-(benzo[d]thiazol-6-yl)-5-phenylpyrazine-2-carbonitrile]	89		93	
Cn1ccc(-c2nc(N)cnc2-c2ccc3ncccc3c2)n1 [Compound No. 1.285, 6-(1-methyl-1H-pyrazol-3-yl)-5-(quinolin-6-yl)pyrazin-2-amine]			34	inhibition at 0.01 µM [1]: 56%; inhibition at 0.1 µM [1]: 76%; inhibition at 1 µM [1]: 90%
Nc1cnc(-c2ccc3ccccc3c2)c(-c2ccccc2)n1 [Compound No. 1.185, 5-(naphthalen-2-yl)-6-phenylpyrazin-2-amine]	20		9	

Further lines, with some results ahead:

inhibition at 3 µM [1] [%]	IC50 ([2]; Assay 2) [µM]	inhibition at 0.1 µM [2, 3] [%]	Structure (SMILES)	also measured
	0.0131		Cn1ccc(-c2nc(N)c(C#N)nc2-c2cc(Cl)c3ncccc3c2)n1 [Compound 1.309, 3-amino-6-(8-chloroquinolin-6-yl)-5-(1-methyl-1H-pyrazol-3-yl)pyrazine-2-carbonitrile]	IC50 [1]: 0.0016 µM
	0.033		Cc1ccn(-c2nc(N)cnc2-c2cc(Cl)c3[nH]ncc3c2)n1 [Compound 1.295, 5-(7-chloro-1H-indazol-5-yl)-6-(3-methyl-1H-pyrazol-1-yl)pyrazin-2-amine]	IC50 [1]: 0.0055 µM
	0.563		Cc1cnc(-c2nc(N)cnc2-c2cc(Cl)c3ncccc3c2)s1 [Compound 1.395, 5-(8-chloroquinolin-6-yl)-6-(5-methylthiazol-2-yl)pyrazin-2-amine]	
	> 10		Nc1cnc(-c2cc(Cl)c3ncccc3c2)c(-n2ccccc2=O)n1 [Compound 1.308, 1-(6-amino-3-(8-chloroquinolin-6-yl)pyrazin-2-yl)pyridin-2(1H)-one]	IC50 [1]: > 10 µM
	0.573		Cc1cnn(-c2nc(N)cnc2-c2cc(Cl)c3ncccc3c2)c1 [Compound 1.303, 5-(8-chloroquinolin-6-yl)-6-(4-methyl-1H-pyrazol-1-yl)pyrazin-2-amine]	
	1.55		Cc1ccn(-c2nc(N)c(O)nc2-c2cc(Cl)c3ncccc3c2)n1 [Compound 1.313, 3-amino-6-(8-chloroquinolin-6-yl)-5-(3-methyl-1H-pyrazol-1-yl)pyrazin-2-ol]	
	0.096		Cn1ccc(-c2nc(N)cnc2-c2cc(Cl)c3ncsc3c2)n1 [Compound 1.305, 5-(4-chlorobenzo[d]thiazol-6-yl)-6-(1-methyl-1H-pyrazol-3-yl)pyrazin-2-amine]	
	1.54		Cn1ccc(-c2nc(N)cnc2-c2cc(F)c3ncccc3c2)n1 [Compound 1.314, 5-(8-fluoroquinolin-6-yl)-6-(1-methyl-1H-pyrazol-3-yl)pyrazin-2-amine]	
	0.251		COc1nc(-c2cc(Cl)c3ncccc3c2)c(-c2ccn(C)n2)nc1N [Compound 1.312, 5-(8-chloroquinolin-6-yl)-3-methoxy-6-(1-methyl-1H-pyrazol-3-yl)pyrazin-2-amine]	
	1.93		CCn1ccc(-c2nc(N)cnc2-c2cc(Cl)c3ncccc3c2)n1 [Compound 1.319, 5-(8-chloroquinolin-6-yl)-6-(1-ethyl-1H-pyrazol-3-yl)pyrazin-2-amine]	
	0.279		Cc1ccn(-c2nc(N)c(C(N)=O)nc2-c2cc(Cl)c3ncccc3c2)n1 [Compound 1.317, 3-amino-6-(8-chloroquinolin-6-yl)-5-(3-methyl-1H-pyrazol-1-yl)pyrazine-2-carboxamide]	
	> 10		Nc1cnc(-c2ccc3ncccc3c2)c(N2CCCC2)n1 [Compound 1.298, 6-(pyrrolidin-1-yl)-5-(quinolin-6-yl)pyrazin-2-amine]	
	1.25		Cn1ccc(-c2nc(N)cnc2-c2ccc3[nH]ncc3c2)n1 [Compound 1.299, 5-(1H-indazol-5-yl)-6-(1-methyl-1H-pyrazol-3-yl)pyrazin-2-amine]	
	0.127		Cn1ccc(-c2nc(N)c(O)nc2-c2cc(Cl)c3ncccc3c2)n1 [Compound 1.310, 3-amino-6-(8-chloroquinolin-6-yl)-5-(1-methyl-1H-pyrazol-3-yl)pyrazin-2-ol]	
	0.0401		Cc1ccn(-c2nc(N)c(Br)nc2-c2cc(Cl)c3ncccc3c2)n1 [Compound 1.316, 3-bromo-5-(8-chloroquinolin-6-yl)-6-(3-methyl-1H-pyrazol-1-yl)pyrazin-2-amine]	
	0.12		Nc1cnc(-c2cc(Cl)c3ncccc3c2)c(-n2ccc(C(F)(F)F)n2)n1 [Compound 1.306, 5-(8-chloroquinolin-6-yl)-6-(3-(trifluoromethyl)-1H-pyrazol-1-yl)pyrazin-2-amine]	
	8.48		Nc1cnc(-c2cc(Cl)c3ncccc3c2)c(-c2ccn(C3CC3)n2)n1 [Compound 1.307, 5-(8-chloroquinolin-6-yl)-6-(1-cyclopropyl-1H-pyrazol-3-yl)pyrazin-2-amine]	
	> 10		Cn1cccc(-c2nc(N)cnc2-c2cc(Cl)c3ncccc3c2)c1=O [Compound 1.329, 3-(6-amino-3-(8-chloroquinolin-6-yl)pyrazin-2-yl)-1-methylpyridin-2(1H)-one]	
